# Measured values from PMC6934184, “Selective DNA-PKcs inhibition extends the therapeutic index of localized radiotherapy and chemotherapy” (The Journal of Clinical Investigation, 2019).
# Molecular target: T1, PDGFRA D842V (Homo sapiens, UniProt P16234, D842V)
# T1 construct: purchased Thermo Fisher Scientific (Life Technologies) SelectScreen
# Test: SelectScreen Z'LYTE
# Assay type: biochemical
# How it was run: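 SelectScreen broad panel; activity (Z'LYTE, Adapta) plus binding formats. ATP: Km app for CSF1R Z'LYTE; 10 for CAMK1 Adapta. Readout = % per kinase.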
# T1 sequence (P16234 24-1089 D842V): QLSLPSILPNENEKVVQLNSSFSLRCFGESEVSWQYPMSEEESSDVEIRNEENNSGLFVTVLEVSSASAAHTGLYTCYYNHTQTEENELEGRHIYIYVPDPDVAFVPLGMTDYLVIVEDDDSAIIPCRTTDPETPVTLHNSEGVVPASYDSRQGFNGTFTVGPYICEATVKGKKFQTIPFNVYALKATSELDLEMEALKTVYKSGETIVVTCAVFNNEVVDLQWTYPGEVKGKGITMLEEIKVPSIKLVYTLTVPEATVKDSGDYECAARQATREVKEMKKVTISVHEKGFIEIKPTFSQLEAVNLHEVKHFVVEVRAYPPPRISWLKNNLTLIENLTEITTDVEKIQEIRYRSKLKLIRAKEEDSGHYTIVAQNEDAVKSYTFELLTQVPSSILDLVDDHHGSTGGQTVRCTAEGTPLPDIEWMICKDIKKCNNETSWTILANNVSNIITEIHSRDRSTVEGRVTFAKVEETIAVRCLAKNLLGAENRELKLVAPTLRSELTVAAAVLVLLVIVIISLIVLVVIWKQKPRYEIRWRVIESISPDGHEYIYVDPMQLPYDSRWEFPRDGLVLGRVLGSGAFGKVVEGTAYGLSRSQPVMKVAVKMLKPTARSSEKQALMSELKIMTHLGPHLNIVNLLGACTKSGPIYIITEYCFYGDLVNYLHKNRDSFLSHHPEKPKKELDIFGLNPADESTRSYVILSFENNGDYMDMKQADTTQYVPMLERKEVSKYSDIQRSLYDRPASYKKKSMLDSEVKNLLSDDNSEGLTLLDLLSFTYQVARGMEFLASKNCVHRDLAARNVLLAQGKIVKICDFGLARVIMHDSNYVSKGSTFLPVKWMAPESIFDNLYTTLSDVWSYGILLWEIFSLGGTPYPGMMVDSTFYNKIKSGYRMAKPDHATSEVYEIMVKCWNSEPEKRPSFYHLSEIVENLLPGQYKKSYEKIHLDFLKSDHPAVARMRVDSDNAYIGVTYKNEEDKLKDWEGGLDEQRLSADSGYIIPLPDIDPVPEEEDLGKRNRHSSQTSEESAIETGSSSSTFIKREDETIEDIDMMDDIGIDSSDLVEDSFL
compound,measurement,value
CN(C(=O)CN1CCOCC1)c1ccc2sc3c(-c4cccc5c(=O)cc(N6CC7CCC(C6)O7)oc45)cccc3c2c1 [NU5455],inhibition at 1 µM,-5%
